# Data published in patent US20190298745A1, “COMPOSITION FOR CONTROLLING SECRETION OF PROSTASOMES AND USE THEREOF” (Industrial Cooperation Foundation Chonbuk National, priority 2018, published 2019).
# “Also recorded” adds a separate entry of the source.
# How the values were obtained:
# mouse sperms = assay: Sperm motility test (CASA) of sperms fused with prostasomes from PPECs; assay type: cell-based; conditions: sperms fused with PPECs-derived prostasomes (with or without pretreatment of the prostate cells), vs no fusion; FIG. 5
# Experimental: The prostasomes of the mouse were obtained by incising the mouse abdominal cavity and obtaining the prostate under the bladder through microsurgery (Drost et al, 2016, Nat Protoc. 11(2): 347-358). Later, the effluent from the prostate gland was collected from the prostate and diluted using BWW (Bigger, Whitten, arid Whittingham) medium [10 mM Hepes, 20 mM sodium lactate, 5 mM glucose, 0.25 mM sodium pyruvate, penicillin G (80 mg/L), streptomycin sulfate (50 mg/L), 95 mM NaCl, 4.8 mM KCl, 1.3 mM CaCl2, 1.2 mM KH2PO4, and 1.2 mM MgSO4 in 25 mM NaHCO3 buffer, pH 7.4]). The supernatant was used to collect prostasomes by the same method as described above.
# To collect mouse sperms which are not fused with prostasomes, the tail epididymis of a male mouse was surgically removed, and blood and adipose tissue were removed using ophthalmic scissors. The epididymis was punctured with a 30 gauge sterilized needle and pinched by tweezers to release a large number of sperms. […]
# Specifically, the isolated sperms were diluted with a weak alkaline buffer with 0.32 M sucrose or binding buffer 150 mM NaCl, 1 mM CaCl2, 1 mM MgCl2, 5 mM glucose with 2 mM Hepes (pH 8.0)/20 mM MES (pH 5.0, binding buffer). […] The sperm motility rate was measured using a computer assisted sperm analysis (CASA) device (IVOS, Hamilton Thorne Biosciences, USA). […]
# [1] = system: DU-145, human prostate cancer cell line; assay: Western blotting of prostasome (exosomal) marker proteins in prostasomes from culture supernatant; assay type: cell-based
# Experimental: Specifically, the prostate cancer cell line DU-145 were cultured in DMEM (GIBCO/Invitrogen, USA) supplemented with 10% exosome-free FBS (GIBCO/Invitrogen, USA) and 1% antibiotics-antimycotic (GIBCO/Invitrogen, USA) under the conditions of 37° C. and 5% CO2. The cell culture was collected and centrifuged at 3,000 rpm for 30 minutes to separate the supernatant. The supernatant was centrifuged at 15,000×g for 20 minutes using a Beckman's high-speed centrifuge, and the supernatant was separated again. The supernatant was centrifuged at 105,000×g for 2 hours using a high-speed centrifuge to obtain a precipitate. The collected precipitate was resuspended in the same buffer. The first eluted fraction was collected using sephadex G-200 (Sigma, USA), centrifuged again, and then suspended for use. 20 μg of protein was inactivated in 5× sample buffer at 100° C. for 5 minutes and then electrophoresed on a 10% SDS polyacrylamide gel. The separated proteins were transferred to a PVDF membrane and blocked in 2% BSA for 90 minutes. The respective HSP70, β-actin, Rab5 and LAMP1 antibodies were placed overnight at 4° C. in a ratio of 1:1,000 and then washed three times for 10 minutes with tris-buffered saline Tween-20 (TBST) buffer. The secondary antibodies were diluted at a ratio of 1:1,000 and allowed to adhere at room temperature for 2 hours. The membranes washed three times for 15 minutes with TBST buffer were treated with ECL (Bio-Rad, USA), and the amount of the protein expression was measured with LAS-500 (GE Healthcare Life Science, USA). DU-145, prostate cancer cell line, was treated with KCl, which induces cell membrane depolarization. Western blotting was performed to identify changes in prostasome-related protein expression. Specifically, the cells were cultured with KCl at various concentrations (0, 5, 10, 25, 50 and 100 mM) for 1 hour, and prostasomes were prepared from the culture supernatant by the method described in Experimental Example 1 and subjected to Western blotting. Further, cells were cultured with 25 mM KCl for various times (0, 10, 30, 60, 120 and 180 minutes) and subjected to Western blotting. The results are illustrated in FIG. 1. Furthermore, DU-145, human prostate cancer cell line was pretreated with a regulator of intracellular calcium (Ca^2+) signaling second messenger to analyze the change in the prostasome-related protein expression. Specifically, DU-145 cells were treated with various antagonists (regulator of intracellular calcium signaling second messenger) such as 100 μg/ml heparin (selective IP3 receptor inhibitor), 50 μM 8-Br-cADPR (antagonist of cADPR) and 1 μM NED-19 (antagonist of NAADP) together with 25 mM KCl. Prostasomes were prepared from the culture supernatant by the method described in Experimental Example 1, and Western blotting was performed. All antagonists were preincubated for 30 minutes before KCl treatment, and the cells were cultured for an additional 1 hour after KCl treatment. The results are illustrated in FIG. 3. Capsaicin (Sigma Aldrich, Mo., USA), which induces intracellular calcium (Ca^2+) signaling, was used to confirm the change in prostasome-related protein expression according to capsaicin treatment in DU-145, human prostate cancer cell line by Western blot. Specifically, the cells were cultured with capsaicin at various concentrations (0, 12.5, 25, 50, 100 and 200 μM) for 3 hours, and prostasomes were prepared from the culture supernatant by the method described in Example 2 and subjected to Western blotting, The cells were also cultured with 50 μM capsaicin for various times (0, 10, 30, 60, […], 120 and 180 minutes) and subjected to Western blotting. The results are illustrated in FIG. 4.
# C57BL/6 mice = assay: In vivo fertilization test in mice (number of pups); design: species or system mouse; conditions: male C57BL/6 mice, 50 mg/kg intraperitoneally twice daily for 2 weeks, then mating 1:1 for 48 hours; FIG. 7
# Experimental: The number of pups was measured in the mouse breeding process to confirm the increase of reproductive ability due to the promotion of the prostasome secretion (Nambu University's animal test approval number #201604), 7-week-old male C57BL/6 mice were randomly assigned into three groups and adapted to the breeding conditions. The groups were divided into the normal untreated group, the solvent-[…] group, and the capsaicin-treated group. Capsaicin was prepared at a high concentration (100-fold) in DMSO, then diluted in phosphate buffered saline (PBS, pH 7.2), and used as an injection. In the solvent-treated group, PBS (200 μl) diluted with the same volume of DMSO was administered. Twice daily capsaicin (50 mg/kg) and placebo were intraperitoneally injected into each experimental group for 2 weeks. Then, each mouse was caged with a female c57BL/6 mouse adapted for the same breeding condition, mating them at a ratio of 1:1 for 48 hours. The mating started at 6 pm, and the mating success was evaluated by confirming that the plaque was formed at the vaginal entrance at 9:00 am, but it was maintained for 48 hours considering the possibility of premature dropping. Then, only the female was separated from each cage, and the separate breeding was performed for each group. After the gestation period (about 21 days), the number of pups was counted. […]
# [2] = system: DU-145, human prostate cancer cell line; assay: Intracellular calcium measurement (fluo-3, confocal microscopy); assay type: cell-based; conditions: for continuous increase of [Ca2+]i by KCl treatment: pretreatment with antagonist before KCl, FIG. 2B-D
# Experimental: DU-145, human prostate cancer cell line, was pretreated with a regulator of intracellular calcium (Ca^2+) signaling second messenger, and the intracellular calcium signaling pattern thereof was analyzed. The concentration of intracellular calcium was measured by the following method: A cell suspension pretreated with a fluo-3 (molecular probe, USA) was titrated in a confocal dish (SPL, Seoul, Korea) coated with poly-L-lysine (Sigma-Aldrich, USA) and reacted for 20 minutes in a CO2 incubator to attach the cells. Then, the intracellular calcium amount was measured by a confocal microscopy system of Nikon Co, using the method of Tsien et al. (Tsien et al., Nature 295, 68-71 (1982)), and the results are illustrated in FIG. 2.
# mouse oocytes = assay: In vitro fertilization test; assay type: cell-based; conditions: sperms fused with prostasomes obtained with or without pretreatment by regulator, reacted with oocytes, 36 hours; FIG. 6
# Experimental: In order to perform the in vitro fertilization test, the method of Ren et al. (Ren et al., Nature 413, 603-609 (2001)) was modified and used. A 10 to 12-week-old female mouse was injected with pregnant mare serum gonadotropin (PMSG) (5 IU; Sigma-Aldrich). After 48 hours, the mouse was injected with human chorionic gonadotropin (hCG) (5 IU; Sigma-Aldrich). After 14 hours of the last injection, uterine tubes were removed and perfused with IVF medium (Medicult, USA), and flown oocytes were collected using a low magnification microscope.
# The collected oocytes were resuspended in IVF medium and were cultured with prostasomes which were obtained in the presence or absence of the regulator of the intracellular calcium signaling second messenger, causing fertilization reaction. The heated mineral oil was overlaid on top of the medium to block the outside air. After 36 hours of the culture, the total number of oocytes contained in the culture medium was counted under a microscope, and cells above the two-cell stage were counted. The fertilization rate was calculated using the following formula. The case that the sperms that had undergone the same fusion process without prostasome treatment were cultured with about 15 oocytes was referred to as 100%. The results are illustrated in FIG. 6. […]
compound,measurement,setting,value
"O=P(O)(O)O[C@@H]1[C@H](O)[C@H](O)[C@@H](OP(=O)(O)O)[C@H](OP(=O)(O)O)[C@H]1O [D-myo-IP3, D-myo-Inositol 1,4,5-triphosphate]",sperm motility rate,mouse sperms,doubling; also recorded: doubled
COc1cc(CNC(=O)CCCC/C=C/C(C)C)ccc1O [capsaicin],"protein expression of HSP70, LAMP1 and Rab5","[1]; 50 μM capsaicin for 0-180 minutes, FIG. 4B",increased in a time-dependent manner
same,protein expression of HSP70,"[1]; capsaicin 0, 12.5, 25, 50, 100 and 200 μM for 3 hours, FIG. 4A",increased in a concentration-dependent manner
same,number of pups,C57BL/6 mice,increased
COc1ccc([C@H]2N[C@H](C(=O)O)Cc3c2[nH]c2ccccc32)cc1CN1CCN(c2ccccc2F)CC1 [Ned-19],HSP70 expression (KCl-induced) with antagonist,"[1]; 100 μg/ml heparin, 50 μM 8-Br-cADPR or 1 μM NED-19 preincubated 30 minutes, then 25 mM KCl 1 hour, FIG. 3",did not show the inhibitory effect
same,continuous increase of [Ca2+]i by KCl treatment,[2],not suppressed
C1CCC[C@H]2CCCN3CC[C@@H](CCCCCC[C@@H]4CCCN5CC[C@@H](CC1)O[C@@H]45)O[C@@H]23 [Xestospongin C],continuous increase of [Ca2+]i by KCl treatment,[2],suppressed
same,fertility (fertilization rate),mouse oocytes,reduced to be similar to that of the negative control
[Cl-].[K+] [KCl],HSP70 expression,"[1]; 25 mM KCl alone without an antagonist, 1 hour, FIG. 3",increased
same,protein expression of HSP70 and LAMP1,"[1]; 25 mM KCl for 0, 10, 30, 60, 120 and 180 minutes, FIG. 1B",increased in a time-dependent manner
same,"protein expression of HSP70, Rab5 and LAMP1 (exosomal markers)","[1]; KCl 0, 5, 10, 25, 50 and 100 mM for 1 hour, FIG. 1A",increased in a concentration-dependent manner
same,intracellular calcium ([Ca2+]),"[2]; 120 μM KCl, FIG. 2A",rapidly increased
"N=c1c2nc(Br)n3c2ncn1C1OC(COP(=O)(O)OP(=O)(O)OCC2OC3C(O)C2O)C(O)C1O (centres unmarked) [8-br-cADPR, 8-Br-cADPR]",continuous increase of [Ca2+]i by KCl treatment,[2],suppressed
heparin,fertility (fertilization rate),mouse oocytes,reduced to be similar to that of the negative control
